Experimental data taken from patent publication EP4700120A1, “NOVEL P[…] DON-DEGRADING ACTIVITY” (CJ Cheiljedang Corporation, priority 2023, dated 2024).

Test system: IPEC-J2 cells
Experiment: Cytotoxicity of DON degradation products, WST assay cell viability
Type: cell-based
Settings: for Cell Viability (%): 24 hours
Protocol: A DMEM/F-12 medium supplemented with 10% FBS and 1% penicillin-streptomycin was added to a T75 flask, and the IPEC-J2 cell line was subcultured in the flask at 37°C and under 5% CO2. For cytotoxicity evaluation, the cultured cells were seeded in 96-well plates containing DMEM/F-12 with 10% FBS to 3×10^4 cells/100 µL, and the cells were incubated for 24 hour under the above conditions. Thereafter, the existing medium was removed, and the three samples in Table 4 were each applied to the cells so as to final concentrations of 2 µM, 1 µM, and 0.5 µM (based on the substrate concentration before the reaction), followed by additional incubation at 37°C in a CO2 incubator for 24 hours. After incubation, the existing substances were removed, and the cells were washed once with DMEM/F-12 and treated with a WST assay reagent (EZ-Cytox kit, DoGenBio) together with the medium. After 2 hours, absorbance at 450 nm was measured to determine cell viability of IPEC-J2 cells.

Compound: CC1=C[C@H]2O[C@@H]3[C@H](O)C[C@](C)([C@@]2(CO)[C@H](O)C1=O)[C@]31CO1 [DON Control, deoxynivalenol]
- cell viability (IPEC-J2, 0.5 µM to 2 µM): approximately 65%
- Cell Viability (%) (IPEC-J2, sample concentration 0.5 µM (substrate concentration before the reaction)): 79.0%
- Cell Viability (%) (IPEC-J2, sample concentration 1 µM (substrate concentration before the reaction)): 71.4%
- Cell Viability (%) (IPEC-J2, sample concentration 2 µM (substrate concentration before the reaction)): 64.6%
